The supplement of paper PMC11451515

System: P12-Ichikawa
Assay: cell viability relative to DMSO control; higher = less cytotoxic
Conditions: 48 h
In short: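 In 1536-well plates, 5 μl of leukemia cells were seeded per well: 500 cells/well for NOMO1 or SEM and 1000 cells/well for P12-Ichikawa. Each line had first been adapted for at least four passages in each medium. Library compounds in DMSO were pin-dosed at 11 threefold concentrations between 47 μM and 0.79 nM, and CellTiter-Glo One luminescence was read after 48 h at 37°C. Viability is a per-plate percentage relative to DMSO wells, with cell-free wells as background.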

[1] = RPMI 5 mM glucose + 10% FBS, 0.000781 µM
[2] = RPMI 5 mM glucose + 10% FBS, 0.00234 µM
[3] = RPMI 5 mM glucose + 10% FBS, 0.00702 µM
[4] = RPMI 5 mM glucose + 10% FBS, 0.0211 µM
[5] = RPMI 5 mM glucose + 10% FBS, 0.0632 µM
[6] = RPMI 5 mM glucose + 10% FBS, 0.19 µM
[7] = RPMI 5 mM glucose + 10% FBS, 0.569 µM
[8] = RPMI 5 mM glucose + 10% FBS, 1.71 µM
[9] = RPMI 5 mM glucose + 10% FBS, 5.12 µM
[10] = RPMI 5 mM glucose + 10% FBS, 15.4 µM
[11] = RPMI 5 mM glucose + 10% FBS, 46.1 µM
[12] = RPMI 5 mM glucose + 10% dialyzed FBS, 0.000781 µM
[13] = RPMI 5 mM glucose + 10% dialyzed FBS, 0.00234 µM
[14] = RPMI 5 mM glucose + 10% dialyzed FBS, 0.00702 µM
[15] = RPMI 5 mM glucose + 10% dialyzed FBS, 0.0211 µM
[16] = RPMI 5 mM glucose + 10% dialyzed FBS, 0.0632 µM
[17] = RPMI 5 mM glucose + 10% dialyzed FBS, 0.19 µM
[18] = RPMI 5 mM glucose + 10% dialyzed FBS, 0.569 µM
[19] = RPMI 5 mM glucose + 10% dialyzed FBS, 1.71 µM
[20] = RPMI 5 mM glucose + 10% dialyzed FBS, 5.12 µM
[21] = RPMI 5 mM glucose + 10% dialyzed FBS, 15.4 µM
[22] = RPMI 5 mM glucose + 10% dialyzed FBS, 46.1 µM
[23] = HPLM + 10% dialyzed FBS, 0.000781 µM
[24] = HPLM + 10% dialyzed FBS, 0.00234 µM
[25] = HPLM + 10% dialyzed FBS, 0.00702 µM
[26] = HPLM + 10% dialyzed FBS, 0.0211 µM
[27] = HPLM + 10% dialyzed FBS, 0.0632 µM
[28] = HPLM + 10% dialyzed FBS, 0.19 µM
[29] = HPLM + 10% dialyzed FBS, 0.569 µM
[30] = HPLM + 10% dialyzed FBS, 1.71 µM
[31] = HPLM + 10% dialyzed FBS, 5.12 µM
[32] = HPLM + 10% dialyzed FBS, 15.4 µM
[33] = HPLM + 10% dialyzed FBS, 46.1 µM

| Compound | cell viability [1] [%] | cell viability [2] [%] | cell viability [3] [%] | cell viability [4] [%] | cell viability [5] [%] | cell viability [6] [%] | cell viability [7] [%] | cell viability [8] [%] | cell viability [9] [%] | cell viability [10] [%] | cell viability [11] [%] | cell viability [12] [%] | cell viability [13] [%] | cell viability [14] [%] | cell viability [15] [%] | cell viability [16] [%] | cell viability [17] [%] | cell viability [18] [%] | cell viability [19] [%] | cell viability [20] [%] | cell viability [21] [%] | cell viability [22] [%] | cell viability [23] [%] | cell viability [24] [%] | cell viability [25] [%] | cell viability [26] [%] | cell viability [27] [%] | cell viability [28] [%] | cell viability [29] [%] | cell viability [30] [%] | cell viability [31] [%] | cell viability [32] [%] | cell viability [33] [%] |
| --- | --- | --- | --- | --- | --- | --- | --- | --- | --- | --- | --- | --- | --- | --- | --- | --- | --- | --- | --- | --- | --- | --- | --- | --- | --- | --- | --- | --- | --- | --- | --- | --- | --- |
| O=C(Nc1cccc(Nc2ncc(Br)c(NCCc3cnc[nH]3)n2)c1)N1CCCC1 | 98 | 103 | 110 | 90.7 | 88.1 | 79.7 | 34.5 | 15.2 | 18.8 | 33.5 | 3.48 | 111 | 104 | 107 | 103 | 99.5 | 92.6 | 95.1 | 20.3 | 27.2 | 34.6 | 9.06 | – | – | – | – | – | – | – | – | – | – | – |
| OCc1ccc(-c2nn(Cc3ccccc3)c3ccccc23)o1 | 117 | 119 | 128 | 126 | 113 | 115 | 117 | 104 | 116 | 113 | 60.9 | 109 | 110 | 108 | 112 | 100 | 108 | 113 | 103 | 102 | 98.9 | 49.5 | 118 | 109 | 103 | 107 | 113 | 108 | 104 | 93.8 | 96.5 | 105 | 73.7 |
| c1cc(CN2CCCNCCNCCCNCC2)ccc1CN1CCCNCCNCCCNCC1 | 80.6 | 90.8 | 95.2 | 12.9 | 101 | 97.6 | 101 | 103 | 99 | 111 | 106 | 86.3 | 93.9 | 92.9 | 24.9 | 94.9 | 99.6 | 101 | 101 | 103 | 96.5 | 103 | 84 | 90.4 | 96.5 | 10.2 | 101 | 104 | 109 | 102 | 102 | 116 | 117 |
| Cc1cccc(C)c1OCC(=O)N[C@@H](Cc1ccccc1)[C@@H](O)C[C@H](Cc1ccccc1)NC(=O)[C@H](C(C)C)N1CCCNC1=O | 98.5 | 101 | 93.9 | 96 | 102 | 99.6 | 97.4 | 91.7 | 91.3 | 87.1 | 56.8 | 91.6 | 87.8 | 94.1 | 88.7 | 91.2 | 90.1 | 93.6 | 79.2 | 85.6 | 83.9 | 54.8 | 99.5 | 96.1 | 98.2 | 102 | 95.7 | 97 | 91.9 | 89.1 | 90.2 | 86.2 | 61.8 |
| NC1=NC=C(C=C1)C2=CC=C3N=CC\4=C(N(C(=O)\C=C4)C5=CC(=CC=C5)C(F)(F)F)C3=C2 | 67.1 | 64.9 | 56.3 | 51.8 | 50.4 | 34 | 33.4 | 27.2 | 7.23 | 7.38 | 11.5 | 64.4 | 74.4 | 59.6 | 52.7 | 50.3 | 32.9 | 30.4 | 23.7 | 7.6 | 7.89 | 12.4 | 81.4 | 82.7 | 76.7 | 66.7 | 58.6 | 41.1 | 42.6 | 34.5 | 11.6 | 14 | 15.7 |
| CN(C)C(=O)c1ccc([S+](=O)([O-])c2ccc(NC(=O)[C@@](C)(O)C(F)(F)F)c(Cl)c2)cc1 | 98 | 98.1 | 107 | 108 | 115 | 110 | 97.9 | 101 | 93.9 | 80.9 | 62.6 | 106 | 110 | 102 | 118 | 114 | 117 | 118 | 106 | 103 | 72.5 | 63.5 | 105 | 111 | 107 | 113 | 116 | 117 | 114 | 117 | 100 | 100 | 43.3 |
| CCOC(=O)[C@H](CCc1ccccc1)N[C@@H](C)C(=O)N1CCC[C@H]1C(=O)O | 118 | 117 | 107 | 111 | 113 | 113 | 108 | 111 | 108 | 98.1 | 101 | 114 | 111 | 106 | 110 | 113 | 116 | 105 | 121 | 104 | 108 | 102 | 120 | 108 | 116 | 111 | 102 | 117 | 112 | 109 | 108 | 97.8 | 106 |
| CCc1c(C(=O)C(N)=O)c2c(OCC(=O)O)cccc2n1Cc1ccccc1 | 102 | 101 | 102 | 104 | 105 | 98.1 | 96.5 | 99.4 | 94.8 | 93.6 | 95.3 | 99.4 | 107 | 102 | 98.4 | 99.9 | 94.4 | 91.8 | 97.3 | 92.3 | 95.8 | 91.3 | 105 | 112 | 112 | 105 | 107 | 111 | 106 | 111 | 103 | 107 | 99.5 |
